Measured values published in US11291208B2, “Ternary herbicide combinations” (Bayer CropScience Aktiengesellschaft, priority 2013, dated 2022).

Assays:
Assay type in all cases: in vivo
GALAP: Galium aparine = test: Herbicidal action, outdoor/field trials, post-emergence; conditions: crop TRZAW, field trials
Experimental: (§1) The seeds or rhizome pieces of typical harmful plants were planted and grown under natural outdoor conditions. After the harmful plants had emerged, they were treated, as a rule at the 2- to 4-leaf stage, with various dosages of the compositions according to the invention at a water application rate of […] (converted).
(§2) After the treatment (approx. 4-6 weeks after application), the herbidical activity of the active compounds or active compound mixtures was scored visually by comparing the treated plots with the untreated control plots. Damage and development of all above-ground parts of the plants was recorded. Scoring was done on a percentage scale (100% action=all plants dead; 50% action=50% of the plants and green plant parts dead; 0% action=no discernible action=like control plot). The score figures of in each case 4 plots were averaged.
(§3) The growth stages of the different weed species are indicated according to the BBCH monograph “Growth stages of mono- and dicotyledonous plants”, 2nd edition, 2001, ed. Uwe Meier, Federal Biological Research Centre for Agriculture and Forestry (Biologische Bundesanstalt für Land and Forstwirtschaft). The respective BBCH stages are indicated in brackets for the different weed species.
(§4) The dose rates of herbicidal ingredients used in each case are indicated for the respective active ingredient in brackets and refer to the amount of active ingredient per hectare (g/ha).
(§5) The herbicidal effects observed for the herbicide (mixtures) are indicated in % Activity against the respective weed. The % Damage indicated refers to the maximum damage observed in the respective crop.
(§6) The results of the treatments are reflected in the Tables below, and the activity measured for the independent use of the active compounds (A+B)+(C) is stated in brackets. The treatments were carried out using Mesosulfuron-methyl (A1-1) or Mesosulfuron-methyl-sodium (A1-2) as component (A), and Iodosulfuron-methyl (B1-1) or Iodosulfuron-methyl-sodium (B1-2) as component (B). The results of the treatments in these cases were essentially identical.

PAPRH: Papaver rhoeas = test: as above; conditions: field trials
Experimental: as §1, §2, §3, §4, §5, §6

[1] = tested on: FUMOF: Fumaria officinalis; test: as above; conditions: HALXF 276.5 g/ha, crop TRZAW, field trials
Experimental: as §1, §2, §3, §4, §5, §6

CENCY: Centaurea Cyanus = test: as above; conditions: crop TRZAW, field trials
Experimental: as §1, §2, §3, §4, §5, §6

[2] = tested on: TRZAW: Triticum aestivum (soft wheat); test: Crop damage in field trials (maximum damage observed in the crop)
Experimental: as §1, §2, §4, §5, §6

BROST: Bromus sterilis = test: Herbicidal action, outdoor/field trials, post-emergence; conditions: PXD 60 g/ha, BROST (25), crop TRZAW, field trials
Experimental: as §1, §2, §3, §4, §5, §6

[3] = tested on: VERHE: Veronica hederifolia; test: as above; conditions: PXD 60 g/ha, VERHE (71), crop TRZAW, field trials
Experimental: as §1, §2, §3, §4, §5, §6

VERPE: Veronica persica = test: as above; conditions: crop TRZAW, field trials
Experimental: as §1, §2, §3, §4, §5, §6

[4] = tested on: GERDI: Geranium dissectum; test: as above; conditions: crop TRZAW, field trials
Experimental: as §1, §2, §3, §4, §5, §6

LOLRI: Lolium rigidum = test: as above
Experimental: as §1, §2, §3, §4, §5, §6

PICEC: Picris echioides = test: as above; conditions: Helminthotheca echioides, TCM 7.5 g/ha, PICEC (22), crop TRZDU, field trials
Experimental: as §1, §2, §3, §4, §5, §6

[5] = tested on: LAMAM: Lamium amplexicaule; test: as above; conditions: TCM 7.5 g/ha, LAMAM (32), crop TRZAW, field trials
Experimental: as §1, §2, §3, §4, §5, §6

[6] = tested on: MATIN: Matricaria inodora; test: as above; conditions: Tripleurospermum inodorum, TCM 7.5 g/ha, MATIN (19), crop TRZAW, field trials
Experimental: as §1, §2, §3, §4, §5, §6

LAMPU: Lamium purpureum = test: as above; conditions: TCM 7.5 g/ha, LAMPU (61), crop TRZAW, field trials
Experimental: as §1, §2, §3, §4, §5, §6

AVEST: Avena sterilis = test: as above; conditions: TCM 7.5 g/ha, AVEST (23), crop TRZDU, field trials
Experimental: as §1, §2, §3, §4, §5, §6

VIOAR: Viola arvensis = test: as above; conditions: TCM 7.5 g/ha, VIOAR (15), crop TRZAW, field trials
Experimental: as §1, §2, §3, §4, §5, §6

[7] = tested on: LOLMU: Lolium multiflorum; test: as above; conditions: TCM 7.5 g/ha, LOLMU (23), crop TRZDU, field trials
Experimental: as §1, §2, §3, §4, §5, §6

[8] = tested on: TRZDU: Triticum aestivum (durum wheat); test: Crop damage in field trials (maximum damage observed in the crop); conditions: TCM 7.5 g/ha
Experimental: as §1, §2, §4, §5, §6

COc1c(Cl)ccc(-c2cc(N)c(Cl)c(C(=O)O)n2)c1F [HALXF, 4-amino-3-chloro-6-(4-chloro-2-fluoro-3-methoxyphenyl)-2-pyridinecarboxylic acid]
inhibition at 276.5 g/ha (GALAP: Galium aparine; HALXF 276.5 g/ha, GALAP): 73% | inhibition at 276.5 g/ha (PAPRH: Papaver rhoeas; HALXF 276.5 g/ha, PAPRH, crop TRZAW): 75% | inhibition at 276.5 g/ha [1]: 85% | inhibition at 276.5 g/ha (CENCY: Centaurea Cyanus; HALXF 276.5 g/ha, CENCY): 45% | % Damage ([2]; HALXF 276.5 g/ha, listed as CENCY): 0% | % Damage ([2]; HALXF 276.5 g/ha, listed as FUMOF): 0% | % Damage ([2]; HALXF 276.5 g/ha, listed as GALAP): 0% | % Damage ([2]; HALXF 276.5 g/ha, listed as PAPRH): 0%

CCc1cc(C)cc(CC)c1-c1c(OC(=O)C(C)(C)C)n2n(c1=O)CCOCC2 [PXD, 8-(2,6-diethyl-4-methylphenyl)-1,2,4,5-tetrahydro-7-oxo-7H-pyrazolo[1,2-d][1,4,5]oxadiazepin-9-yl 2,2-dimethylpropanoate]
inhibition at 60 g/ha (BROST: Bromus sterilis): 0% | inhibition at 60 g/ha [3]: 13% | inhibition at 60 g/ha (VERPE: Veronica persica; PXD 60 g/ha, VERPE (31)): 0% | inhibition at 60 g/ha ([4]; PXD 60 g/ha, GERDI (19)): 30% | inhibition at 60 g/ha (CENCY: Centaurea Cyanus; PXD 60 g/ha, CENCY (38)): 60% | % Damage ([2]; PXD 60 g/ha, listed as BROST (25)): 0% | % Damage ([2]; PXD 60 g/ha, listed as CENCY (38)): 15% | % Damage ([2]; PXD 60 g/ha, listed as GERDI (19)): 4% | % Damage ([2]; PXD 60 g/ha, listed as VERHE (71)): 0% | % Damage ([2]; PXD 60 g/ha, listed as VERPE (31)): 0%

COc1cc(OC)n2nc(NS(=O)(=O)c3c(C(F)(F)F)ccnc3OC)nc2n1 [PYX, N-(5,7-dimethoxy[1,2,4]triazolo[1,5-a]pyrimidin-2-yl)-2-methoxy-4-(trifluoromethyl)-3-pyridinesulfonamide]
inhibition at 17 g/ha (LOLRI: Lolium rigidum; PYX 17 g/ha, LOLRI (10)): 20%

COC(=O)c1csc(C)c1S(=O)(=O)NC(=O)n1nc(OC)n(C)c1=O [TCM, methyl 4-[(4,5-dihydro-3-methoxy-4-methyl-5-oxo-1H-1,2,4-triazol-1-yl)carbonylsulfamoyl]-5-methylthiophene-3-carboxylate]
inhibition at 7.5 g/ha (PICEC: Picris echioides): 69% | inhibition at 7.5 g/ha [5]: 68% | inhibition at 7.5 g/ha [6]: 20% | inhibition at 7.5 g/ha (LAMPU: Lamium purpureum): 70% | inhibition at 7.5 g/ha (GALAP: Galium aparine; TCM 7.5 g/ha, GALAP (23)): 37% | inhibition at 7.5 g/ha (AVEST: Avena sterilis): 33% | inhibition at 7.5 g/ha (PAPRH: Papaver rhoeas; TCM 7.5 g/ha, PAPRH (15), crop TRZDU): 70% | inhibition at 7.5 g/ha (VIOAR: Viola arvensis): 38% | inhibition at 7.5 g/ha [7]: 43% | inhibition at 7.5 g/ha (LOLRI: Lolium rigidum; TCM 7.5 g/ha, LOLRI (29), crop TRZDU, field trials): 52% | inhibition at 7.5 g/ha (VERPE: Veronica persica; TCM 7.5 g/ha, VERPE): 10% | inhibition at 7.5 g/ha ([4]; TCM 7.5 g/ha, GERDI (29)): 63% | inhibition at 7.5 g/ha (CENCY: Centaurea Cyanus; TCM 7.5 g/ha, CENCY (19)): 38% | % Damage ([2]; TCM 7.5 g/ha, listed as CENCY (19)): 0% | % Damage ([2]; TCM 7.5 g/ha, listed as CENCY (19), Table 2B): 0% | % Damage ([2]; TCM 7.5 g/ha, listed as GALAP (23)): 0% | % Damage ([2]; TCM 7.5 g/ha, listed as GALAP (23), Table 2B): 0% | % Damage ([2]; TCM 7.5 g/ha, listed as GERDI (29)): 0% | % Damage ([2]; TCM 7.5 g/ha, listed as GERDI (29), Table 2B): 0% | % Damage ([2]; TCM 7.5 g/ha, listed as LAMAM (32)): 1% | % Damage ([2]; TCM 7.5 g/ha, listed as LAMAM (32), Table 2B): 1% | % Damage ([2]; TCM 7.5 g/ha, listed as LAMPU (61)): 1% | % Damage ([2]; TCM 7.5 g/ha, listed as LAMPU (61), Table 2B): 1% | % Damage ([2]; TCM 7.5 g/ha, listed as MATIN (19)): 0% | % Damage ([2]; TCM 7.5 g/ha, listed as MATIN (19), Table 2B): 0% | % Damage ([2]; TCM 7.5 g/ha, listed as VERPE): 1% | % Damage ([2]; TCM 7.5 g/ha, listed as VERPE, Table 2B): 1% | % Damage ([2]; TCM 7.5 g/ha, listed as VIOAR (15)): 0% | % Damage ([2]; TCM 7.5 g/ha, listed as VIOAR (15), Table 2B): 0% | % Damage ([8]; listed as AVEST (23)): 0% | % Damage ([8]; listed as AVEST (23), Table 1B): 0% | % Damage ([8]; listed as LOLMU (23)): 0% | % Damage ([8]; listed as LOLMU (23), Table 1B): 0% | % Damage ([8]; listed as LOLRI (29)): 5% | % Damage ([8]; listed as LOLRI (29), Table 1B): 5% | % Damage ([8]; listed as PAPRH (15)): 0% | % Damage ([8]; listed as PAPRH (15), Table 1B): 0% | % Damage ([8]; listed as PICEC (22)): 5% | % Damage ([8]; listed as PICEC (22), Table 1B): 5%
